# Laboratory results published in BindingDB's records for doi:10.1002/cbic.201200571 (Technical University of Dortmund, 2013).
# pIC50: −log10 of the molar value.
# Legend:
# [1] = target: Acyl-protein thioesterase 1 (Homo sapiens, UniProt O75608); assay: Enzymatic Protein Activity Assay
# Experimental: (§1) The enzyme activities were determined by measuring the release of fluorescent 6,8-difluoro-4-methylumbelliferone (DiFMU) by the APT hydrolysis of DiFMU octanoate (DiFMUO) in a Tecan Infinite M200 microplate reader in a 96-well format.
# [2] = target: Acyl-protein thioesterase 2 (Homo sapiens, UniProt O95372); assay: Enzymatic Protein Activity Assay
# Experimental: as §1
# Sequence of Acyl-protein thioesterase 1 (O75608 whole entry): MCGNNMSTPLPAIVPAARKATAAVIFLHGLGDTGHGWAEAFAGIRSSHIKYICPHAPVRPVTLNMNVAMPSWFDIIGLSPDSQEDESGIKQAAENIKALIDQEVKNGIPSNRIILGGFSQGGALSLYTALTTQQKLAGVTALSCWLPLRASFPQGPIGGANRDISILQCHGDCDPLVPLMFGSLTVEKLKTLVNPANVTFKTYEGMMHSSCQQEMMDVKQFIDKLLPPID
# Sequence of Acyl-protein thioesterase 2 (O95372 whole entry): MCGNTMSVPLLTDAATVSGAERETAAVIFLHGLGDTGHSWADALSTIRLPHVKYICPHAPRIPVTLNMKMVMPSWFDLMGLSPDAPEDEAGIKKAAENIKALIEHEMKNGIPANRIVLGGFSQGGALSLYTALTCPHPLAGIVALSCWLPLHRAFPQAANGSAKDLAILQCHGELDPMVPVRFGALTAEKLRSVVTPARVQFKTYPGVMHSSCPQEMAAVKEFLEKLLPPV
Compound,pIC50 [1],pIC50 [2]
"OB(O)c1ccc(Cl)c(Cl)c1 [3,4-Dichlorophenyl boronic acid]",5.96,6.86
OB(O)c1ccccc1-c1ccccc1 [(2-phenylphenyl)boranediol],< 4.30,< 4.30
OB(O)c1ccc(-c2ccccc2)cc1 [(4-phenylphenyl)boranediol],4.77,5.45
"OB(c1ccccc1)c1cccc(COCc2cccc(B(O)c3ccccc3)c2)c1 [Phenylboronic acid, 7]",4.47,4.38
"OB(O)c1cc(F)cc(F)c1 [Phenylboronic acid, 8]",6.29,5.71
"OB(O)c1cccc(Cl)c1 [Phenylboronic acid, 10]",5.85,6.38
"OB(O)c1cc2ccccc2s1 [Phenylboronic acid, 11]",5.64,6.28
"NCCOB(c1ccccc1)c1ccc(COCc2ccc(B(OCCN)c3ccccc3)cc2)cc1 [Phenylboronic acid, 13]",5.57,5.39
"OB(O)c1ccc(Cl)cc1 [Phenylboronic acid, 18]",5.34,5.38

# Further lines, results first:
pIC50 [1],pIC50 [2],Compound
5.49,5.74,"CN(C)CCOB(c1ccccc1)c1cccc(COCc2cccc(B(OCCN(C)C)c3ccccc3)c2)c1 [Phenylboronic acid, 14]"
5.49,6.62,"OB(O)c1cc(Oc2ccccc2)ccc1I [Phenylboronic acid, 15]"
5.43,5.53,"COC(=O)c1cc(B(O)O)cc([N+](=O)[O-])c1 [Phenylboronic acid, 16]"
5.41,5.54,"CC(=O)c1cccc(B(O)O)c1 [Phenylboronic acid, 17]"
5.20,5.67,"Cc1ccc(Br)c(B(O)O)c1 [Phenylboronic acid, 19]"
4.87,4.95,"OB(O)c1cc2ccccc2o1 [Phenylboronic acid, 21]"
4.83,4.60,"OB(O)c1ccccc1 [Phenylboronic acid, 22]"
